The test system of data set [1] is bFGF. Description: Plasma bFGF concentration (ELISA). It counts as in vivo, human. The note with it: after 14 days of multiple dosing. The procedure: The effects of telatinib treatment on the plasma concentrations of sVEGFR-2, VEGF and bFGF were determined from blood samples taken at baseline, on day 14 of cycles 1, 2, 4, 6, etc. and at the final visit. Samples were analysed using the relevant quantitative enzyme-linked immunosorbent assay (ELISA) (R&D Systems Europe, Oxford, UK) according to the manufacturer's instructions. DCE-MRI was performed at baseline, on day 2 (only cycle 1), and on day 14 of cycles 1–3 to assess tumour blood flow/tumour vessel permeability in a subgroup of patients ([Morgan et al, 2003]).
(§1) To assess the biological activity of telatinib, plasma concentration analyses for the angiogenic markers VEGF, sVEGFR-2, bFGF, PDGF and […] were performed at baseline and during the course of the study. Furthermore, DCE-MRI measurements were done at baseline, on days 2 and 14 of cycle 1 and on day 14 of cycles 2 and 3. Evaluable DCE-MRI results were available for a subgroup of patients treated at dose levels of 300 mg BID or higher.
(In general: ELISA stands for enzyme-linked immunosorbent assay.)

Data set [2] relates to VEGF. Description: Plasma VEGF concentration (ELISA). Format: in vivo, human. As for the experimental part:
[…] Samples were analysed using the relevant quantitative enzyme-linked immunosorbent assay (ELISA) (R&D Systems Europe, Oxford, UK) according to the manufacturer's instructions. DCE-MRI was performed at baseline, on day 2 (only cycle 1), and on day 14 of cycles 1–3 to assess tumour blood flow/tumour vessel permeability in a subgroup of patients ([Morgan et al, 2003]).
as §1

For data set [3], the system named is p-glycoprotein transporter. The arrangement: method as in printed. The note with it: in vitro studies; background statement, ref not given; cited from earlier work.
The subject of data set [4] is DLD-1 colon carcinoma. The arrangement: method as in printed. The note with it: DLD-1 colon carcinoma model; background statement, ref not given; cited from earlier work.
Data set [5] concerns MDA-MB-231 breast carcinoma. The arrangement: method as in printed. The note with it: MDA-MB-231 breast carcinoma model; background statement, ref not given; cited from earlier work.
Data set [6] has as its system major human CYP isoforms. Set-up: method as in printed. The note with it: at therapeutically relevant concentrations; background statement, ref not given; cited from earlier work.

Structures are written as SMILES.

Turning to `CNC(=O)c1cc(COc2nnc(Nc3ccc(Cl)cc3)c3ccoc23)ccn1` [telatinib], the bFGF plasma levels result in data set [1] is listed as “no relevant changes”. The VEGF levels entry in data set [2] (day 21 compared to baseline) is “increased”. Moreover, the VEGF plasma levels entry in data set [2] (within 8 h after the first telatinib administration) is on record as “dose-dependent short-term increase”. The “drug–drug interactions due to modulation of p-glycoprotein transporter activity” value in data set [3] is given as “unlikely”. The “tumour growth in vivo” value is recorded as “potent, dose-dependent reduction in tumour growth” in data set [4] and “potent, dose-dependent reduction in tumour growth” in data set [5]. The “inhibitory and inductive potential on major human CYP isoforms” value in data set [6] is on record as “neither an inhibitory nor an inductive potential”.

Values taken from article PMC2584942, “Phase I dose escalation study of telatinib (BAY 57-9352) in patients with advanced solid tumours” (British Journal of Cancer, 2008).
